Measurements from publication PMC5571287 (Antimicrobial Agents and Chemotherapy, 2017).
Read-outs that look alike come from different tables or passages of the source.

How the values were obtained:
[1] = target: RSV RdRp activity in crude RSV A L-P complex (Human respiratory syncytial virus A, UniProt P28887); test: biochemical; settings: read-out: RdRp activity IC90
human polymerase β = human polymerase β (Homo sapiens, UniProt P06746); test: Human polymerase inhibition in vitro (data not shown); assay type: biochemical; settings: up to 1 μM
RSV B WST = test: CPE assay, RSV B Washington in HEp-2 cells (resazurin); assay type: cell-based, respiratory syncytial virus; settings: human respiratory syncytial virus, HEp-2
Rhinovirus 16 = test: microbe, parasite or virus in culture; assay type: cell-based, human rhinovirus; settings: Rhinovirus 16, HeLa
RSV B 9320 = settings: human respiratory syncytial virus
RSVA 492 = test: microbe, parasite or virus in culture; assay type: cell-based; settings: human respiratory syncytial virus, RSVA 492, clinical
[2] = target: minigenome construct comprising the L protein, M2-1, N, and P of RSV A2 (Human respiratory syncytial virus A, UniProt P28887); test: cell-based
human polymerase α = human polymerase α (Homo sapiens, UniProt P09884); test: Human polymerase inhibition in vitro (data not shown); assay type: biochemical; settings: up to 1 μM
RSV A Long [3] = test: CPE assay in HEp-2 cells (resazurin); assay type: cell-based; settings: human respiratory syncytial virus, laboratory
RSV A Long [4] = test: RSV A Long-infected cotton rats, lung homogenate viral load and transcripts; assay type: in vivo
RSV A2 [5] = test: CPE assay, RSV A2 in HEp-2 cells (resazurin); assay type: cell-based, respiratory syncytial virus; settings: human respiratory syncytial virus, HEp-2
RSVB 1262 [6] = settings: human respiratory syncytial virus
RSVB 1000 = settings: human respiratory syncytial virus
[7] = test system: human mitochondrial polymerase; test: Human polymerase inhibition in vitro (data not shown); assay type: biochemical; settings: up to 1 μM
RSVA 689 = settings: human respiratory syncytial virus
RSVA 1211 = test: microbe, parasite or virus in culture; assay type: cell-based; settings: human respiratory syncytial virus, RSVA 1211, clinical
in vitro [8] = settings: rhesus monkey
[9] = test system: Herpes simplex virus 1 (HF strain); test: microbe, parasite or virus in culture; assay type: cell-based; settings: Herpes simplex virus 1, Vero
[10] = test system: Wild type RSVA2 (vehicle control virus); test: CPE assay, vehicle control (wild type) RSV A2 virus; settings: human respiratory syncytial virus
[11] = test system: Measles virus (Edmonton strain); test: microbe, parasite or virus in culture; assay type: cell-based; settings: MRC5
RSVB 1276 = settings: human respiratory syncytial virus
in vitro [12] = settings: African green monkey
RSV A2 [13] = test: Time-of-addition assay and MOI dependency, CPE (methylene blue) in HEp-2; assay type: cell-based; settings: human respiratory syncytial virus
RSVB 1262 [14] = test: microbe, parasite or virus in culture; assay type: cell-based; settings: human respiratory syncytial virus, RSVB 1262, clinical
[15] = HEp-2, read-out: RSV titre in supernatant IC50 (0.3 Log PFUe reduction) (converted)
[16] = HEp-2, read-out: RSV titre in supernatant IC90 (1 Log PFUe reduction) (converted)

Chain of minigenome construct comprising the L protein, M2-1, N, and P of RSV A2 (P28887 whole entry): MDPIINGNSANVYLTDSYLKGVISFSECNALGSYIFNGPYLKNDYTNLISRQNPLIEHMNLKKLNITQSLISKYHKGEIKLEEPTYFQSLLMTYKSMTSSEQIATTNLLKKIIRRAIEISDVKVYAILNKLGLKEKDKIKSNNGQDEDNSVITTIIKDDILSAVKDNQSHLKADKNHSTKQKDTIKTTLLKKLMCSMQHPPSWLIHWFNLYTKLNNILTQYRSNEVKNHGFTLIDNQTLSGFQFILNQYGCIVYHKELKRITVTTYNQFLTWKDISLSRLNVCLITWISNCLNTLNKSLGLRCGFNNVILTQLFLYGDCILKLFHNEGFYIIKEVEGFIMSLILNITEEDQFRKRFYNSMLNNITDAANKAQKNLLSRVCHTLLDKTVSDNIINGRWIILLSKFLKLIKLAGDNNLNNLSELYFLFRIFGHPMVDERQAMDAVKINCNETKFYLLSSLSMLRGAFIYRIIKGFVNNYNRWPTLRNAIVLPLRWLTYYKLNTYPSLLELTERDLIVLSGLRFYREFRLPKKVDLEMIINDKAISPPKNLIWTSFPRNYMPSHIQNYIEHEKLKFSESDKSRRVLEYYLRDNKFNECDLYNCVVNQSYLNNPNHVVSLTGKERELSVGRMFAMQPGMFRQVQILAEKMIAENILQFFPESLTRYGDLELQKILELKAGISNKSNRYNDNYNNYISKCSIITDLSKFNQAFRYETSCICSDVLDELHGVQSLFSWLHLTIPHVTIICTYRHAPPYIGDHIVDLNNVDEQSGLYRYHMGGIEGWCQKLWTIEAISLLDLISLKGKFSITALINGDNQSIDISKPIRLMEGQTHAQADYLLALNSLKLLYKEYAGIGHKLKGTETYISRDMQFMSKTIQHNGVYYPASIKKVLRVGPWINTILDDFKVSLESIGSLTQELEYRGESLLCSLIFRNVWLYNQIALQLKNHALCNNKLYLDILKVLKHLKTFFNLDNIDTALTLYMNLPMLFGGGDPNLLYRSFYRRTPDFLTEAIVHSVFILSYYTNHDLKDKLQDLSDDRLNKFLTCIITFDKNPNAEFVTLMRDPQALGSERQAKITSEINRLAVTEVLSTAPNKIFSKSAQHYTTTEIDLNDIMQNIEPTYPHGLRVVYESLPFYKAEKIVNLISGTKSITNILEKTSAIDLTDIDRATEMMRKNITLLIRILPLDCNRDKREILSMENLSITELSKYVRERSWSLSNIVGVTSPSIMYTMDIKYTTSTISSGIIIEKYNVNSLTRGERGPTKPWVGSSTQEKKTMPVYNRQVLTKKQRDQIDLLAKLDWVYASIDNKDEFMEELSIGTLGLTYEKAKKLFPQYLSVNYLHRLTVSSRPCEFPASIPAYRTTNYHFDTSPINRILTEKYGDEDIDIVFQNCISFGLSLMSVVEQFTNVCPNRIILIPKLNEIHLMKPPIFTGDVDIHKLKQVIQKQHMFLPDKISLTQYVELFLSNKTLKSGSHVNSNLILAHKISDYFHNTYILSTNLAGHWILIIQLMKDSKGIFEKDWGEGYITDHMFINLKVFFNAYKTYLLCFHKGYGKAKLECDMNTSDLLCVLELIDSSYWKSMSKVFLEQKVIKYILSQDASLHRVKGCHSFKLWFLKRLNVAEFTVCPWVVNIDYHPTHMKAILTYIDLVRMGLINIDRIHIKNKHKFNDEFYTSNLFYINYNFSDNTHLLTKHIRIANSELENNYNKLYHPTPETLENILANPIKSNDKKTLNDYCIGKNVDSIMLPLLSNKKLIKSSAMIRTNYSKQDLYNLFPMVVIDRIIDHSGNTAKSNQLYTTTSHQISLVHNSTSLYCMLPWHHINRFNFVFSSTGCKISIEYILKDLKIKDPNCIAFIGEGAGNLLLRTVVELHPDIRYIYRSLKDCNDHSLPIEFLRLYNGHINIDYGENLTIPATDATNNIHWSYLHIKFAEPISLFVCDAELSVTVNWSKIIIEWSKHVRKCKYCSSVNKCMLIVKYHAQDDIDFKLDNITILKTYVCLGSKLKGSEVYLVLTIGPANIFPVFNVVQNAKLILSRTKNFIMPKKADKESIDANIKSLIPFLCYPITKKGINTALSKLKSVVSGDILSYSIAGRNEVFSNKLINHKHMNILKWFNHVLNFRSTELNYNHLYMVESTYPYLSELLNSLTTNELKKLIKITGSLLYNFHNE
Chain of minigenome construct comprising the L protein, M2-1, N, and P of RSV A2 (P03421 whole entry, further chain): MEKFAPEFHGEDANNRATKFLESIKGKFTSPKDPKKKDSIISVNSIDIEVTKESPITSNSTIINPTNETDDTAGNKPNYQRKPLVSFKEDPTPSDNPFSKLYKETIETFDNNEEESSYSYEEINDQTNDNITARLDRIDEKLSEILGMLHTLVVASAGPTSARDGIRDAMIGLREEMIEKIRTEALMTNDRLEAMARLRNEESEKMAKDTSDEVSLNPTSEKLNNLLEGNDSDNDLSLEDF
Chain of RSV RdRp activity in crude RSV A L-P complex (P28887 whole entry): as the sequence (P28887 whole entry) above
Chain of RSV RdRp activity in crude RSV A L-P complex (P03421 whole entry, further chain): as the sequence (P03421 whole entry, further chain) above

Question: What does the source list for `Cc1cnc(N2CC3(CCOCC3)C2)c(C(=O)Nc2ccc(C(=O)N3CCc4cc(C(=O)Nc5c(C)cccc5F)sc4-c4ccccc43)cc2)c1` [PC786, N-(2-fluoro-6-methylphenyl)-6-(4-(5-methyl-2-(7-oxa-2-azaspiro[3.5]nonan-2-yl)nicotinamido)benzoyl)-5,6-dihydro-4H-benzo[b]thieno[2,3-d]azepine-2-carboxamide]?
Answer: IC90 [1]: 21.8 nM; inhibitory effects on human polymerase β (human polymerase β): no measurable inhibitory effects; IC50 (RSV B WST): 27.3 ± 0.77 nM; IC90 (RSV B WST): 57.1 ± 3.87 nM; IC50 (Rhinovirus 16; Enterovirus): > 14000 nM; IC90 or IC95 (Rhinovirus 16): >14000 nM; IC50 (RSV B 9320; HEp-2, read-out: PCR IC50 (0.3 Log PFUe reduction) (converted)): 30.3 nM; IC90 (RSV B 9320; HEp-2, read-out: PCR IC90 (1 Log PFUe reduction) (converted)): 31 nM; IC50 (RSVA 492; read-out: CPE IC50): 0.42 nM; IC90 (RSVA 492; read-out: CPE IC90): 0.57 nM; inhibition at 0.14 µM ([2]; HEp-2, at 140 nM, read-out: maximum inhibition achieved): 100%; IC90 ([2]; luciferase, HEp-2, wild-type L protein): 1.54 nM; inhibitory effects on human polymerase α (human polymerase α): no measurable inhibitory effects; IC50 (RSV A Long [3]): 2.46 nM; IC90 (RSV A Long [3]): 3.25 nM; IP-10 transcripts in lung homogenates (RSV A Long [4]; i.n. 0.33-10 mg/ml, day 4): dose-dependent inhibition; RANTES transcripts in lung homogenates (RSV A Long [4]; i.n. 0.33-10 mg/ml, day 4): dose-dependent inhibition; RSV NS-1 gene transcripts in lung homogenates (RSV A Long [4]; i.n. 0.33-10 mg/ml, day 4): dose-dependent inhibition; viral load in lung homogenates on day 4 (RSV A Long [4]; i.n. once daily days 0 to 3, doses of more than […] (165 μg/cotton rat)): lower than the detection limit; IC50 (RSV A2 [5]; RSV A2, laboratory, low-passage isolate study, read-out: CPE assay IC50): 0.96 nM; IC90 (RSV A2 [5]; RSV A2, laboratory, low-passage isolate study, read-out: CPE assay IC90): 1.82 nM; IC50 (RSV A2 [5]; read-out: RSV A2 IC50): 0.5 ± 0.0014 nM; IC90 (RSV A2 [5]; read-out: RSV A2 IC90): 0.63 ± 0.035 nM; IC50 (RSVB 1262 [6]; [15]): 9.36 nM; IC90 (RSVB 1262 [6]; [16]): 12.3 nM; IC50 (RSVB 1000; [15]): 10.3 nM; IC90 (RSVB 1000; [16]): 12.4 nM; inhibitory effects on human mitochondrial polymerase [7]: no measurable inhibitory effects; IC50 (RSVA 689; [15]): 0.54 nM; IC90 (RSVA 689; [16]): 1.12 nM; IC50 (RSVA 1211; read-out: CPE IC50): < 0.09 nM; IC90 (RSVA 1211; read-out: CPE IC90): 1.96 nM; CC50 (in vitro [8]): > 14000 nM; IC90 or IC95 [9]: >14000 nM; IC50 ([9]; Human alphaherpesvirus 1): > 14000 nM; IC50 ([10]; read-out: Wild type RSVA2 IC50): 0.027 nM; IC90 ([10]; read-out: Wild type RSVA2 IC90): 0.065 nM; IC90 or IC95 [11]: >14000 nM; IC50 ([11]; Measles morbillivirus): > 14000 nM; IC50 (RSVB 1276; [15]): 15.1 nM; IC90 (RSVB 1276; [16]): 22.5 nM; CC50 (in vitro [12]): > 14000 nM; IC50 (RSV A2 [13]; HEp-2, 24 h, MOI 0.02, n = 3, read-out: IC50 at treatment time 24 h postinoculation): 0.85 nM; IC50 (RSV A2 [13]; HEp-2, 24 h, MOI 0.1, n = 3, read-out: IC50 at treatment time 24 h postinoculation): 1.09 nM; IC50 (RSV A2 [13]; HEp-2, 24 h, MOI 1.0, n = 3, read-out: IC50 at treatment time 24 h postinoculation): 0.5 nM; IC50 (RSV A2 [13]; HEp-2, 48 h, read-out: IC50 at treatment time 48 h postinoculation, MOI 0.02, n = 3): 0.94 nM; IC50 (RSV A2 [13]; HEp-2, 48 h, read-out: IC50 at treatment time 48 h postinoculation, MOI 0.1, n = 3): 2.36 nM; IC50 (RSV A2 [13]; HEp-2, 48 h, read-out: IC50 at treatment time 48 h postinoculation, MOI 1.0, n = 3): 0.46 nM; IC50 (RSV A2 [13]; HEp-2, 72 h, MOI 0.02, n = 3, read-out: IC50 at treatment time 72 h postinoculation): > 93.4 nM; IC50 (RSV A2 [13]; HEp-2, 72 h, MOI 0.1, n = 3, read-out: IC50 at treatment time 72 h postinoculation): > 140 nM; IC50 (RSV A2 [13]; HEp-2, 72 h, MOI 1.0, n = 3, read-out: IC50 at treatment time 72 h postinoculation): > 140 nM; IC50 (RSV A2 [13]; HEp-2, MOI 0.02, n = 3, CPE at 144 h, read-out: IC50 at treatment time 0 h postinoculation): 0.6 nM; IC50 (RSV A2 [13]; HEp-2, MOI 0.1, n = 3, CPE at 144 h, read-out: IC50 at treatment time 0 h postinoculation): 0.99 nM; IC50 (RSV A2 [13]; HEp-2, MOI 1.0, n = 3, CPE at 144 h, read-out: IC50 at treatment time 0 h postinoculation): 0.44 nM; IC50 (RSVB 1262 [14]; read-out: CPE IC50): 14.5 nM; IC90 (RSVB 1262 [14]; read-out: CPE IC90): 692 nM
